{"source": "paper PMC10808720", "about": "(Frontiers in Pharmacology, 2024)", "key": {"HAdV5-GFP [1]": {"system": "HAdV5-GFP", "experiment": "microbe, parasite or virus in culture", "format": "cell-based, human adenovirus (HAdV5)", "details": "HAdV5-GFP; 293β5 cells; MOI 0.06 vp/cell; 7 days; read-out: IC50 plaque assay", "experimental": "Compounds were tested using low MOI infections (0.06 vp/cell), initially at concentrations of 10 μM and subsequently in a dose-response assay ranging from 10 μM to 2.44 nM in a plaque assay. Briefly, 293β5 cells were seeded in 6-well plates at a density of 1 × 10^6 cells per well in duplicate for each condition. When the cells reached 80%–90% confluency, they were infected with HAdV5-GFP and rocked for 2 h at 37°C. After the incubation, the inoculum was removed and the cells were washed once with PBS. Cells were then carefully overlaid with equal parts of 4 mL/well 1.6% ([…]) Difco Agar Noble (Becton, Dickinson & Co., Sparks, MD, USA) and 2× Eagle’s Minimum Essential Medium (EMEM; BioWhittaker) supplemented with 2×penicillin/streptomycin, 2× L-glutamine, and 10% FBS. The mixture also contained the compounds in the concentration ranges described above. Following incubation for 7 days at 37°C, plates were scanned with a Typhoon FLA 9000 imager (GE Healthcare Life Sciences) and the formed plaques were quantified with ImageJ ([Schneider et al., 2012]). Plaque counting was performed to calculate the 50% inhibitory concentration (IC50) of each compound using the statistical software GraphPad Prism 6."}, "HAdV5-GFP [2]": {"system": "HAdV5-GFP", "experiment": "Initial rapid screening, HAdV5-mediated GFP expression in A549 cells", "format": "cell-based, human adenovirus (HAdV5)", "details": "50 µM, 2,000 vp/cell, 48 h", "experimental": "An initial rapid screening was performed using human A549 cells (3 × 10^5 cells/well) infected with HAdV5-GFP with a multiplicity of infection (MOI) of 2,000 vp/cell in the presence of 50 μM of the candidate antiviral compounds. Briefly, a standard infection curve was generated in parallel by infecting cells in the absence of compounds using serial two-fold dilutions of virus. Cells, virus and compounds were incubated for 48 h at 37°C and 5% CO2. Infection, as measured by HAdV5-mediated GFP expression, was analyzed using a Typhoon 9410 imager (GE Healthcare Life Sciences), and quantified with ImageQuantTL (GE Healthcare Life Sciences). All reactions were done in triplicate."}, "wild-type HAdV5 [3]": {"system": "wild-type HAdV5", "experiment": "HAdV yield reduction (burst) assay, TCID50 end-point dilution", "format": "cell-based, human adenovirus (HAdV5)", "details": "10-fold IC50 concentration; TCID50/ml compound vs. DMSO; A549 cells; 48 h; MOI 100 vp/cell", "experimental": "A549 cells (1.5 × 10^5 cells/well in a 24-well plate) were incubated 24 h in 500 μL of complete DMEM and they were infected with wild-type HAdV5 (MOI 100 vp/cell) when more than 90% of confluency was observed. Infected cells were incubated for 48 h at 37°C in 500 μL of either complete DMEM containing 10-fold IC50 concentration of compounds obtained in the plaque assay or the same volume of DMSO (positive control). After 48 h, the cells were harvested and subjected to three rounds of freeze/thaw. Serial dilutions of the clarified lysates were titrated against A549 cells (3 × 10^4 cells/well in a 96-well plate) and TCID50 values were calculated using an end-point dilution method ([Reed and Muench, 1938])."}, "HCMV": {"system": "HCMV", "experiment": "Impact on HCMV replication (qPCR of HCMV DNA in HFF)", "format": "cell-based, human cytomegalovirus", "details": "2-fold IC50 (HAdV plaque assay), 72 h", "experimental": "To test the anti-HCMV activity of these rotenolone-related compounds, human foreskin fibroblasts (HFF; ATCC, Manassas, VA) were seeded in a 24-well plate (8.3 × 10^4 cells/well), infected with HCMV (MOI 0.05 vp/cell), and incubated in complete DMEM in the presence of either 2-fold IC50 concentration of each compound obtained in the plaque assay against HAdV or the same volume of DMSO (positive control) in duplicate. The cells were incubated for 72 h at 37°C and 5% CO2 and HCMV DNA was purified from the cell lysate using E.Z.N.A Tissue DNA Kit (Omega Biotek, Norcross, GA, USA) following the manufacturer’s instructions. The qPCR primers, conditions, and protocols were the same as previously reported ([Mazzotta et al., 2020b])."}, "p53/MDM2 complex": {"system": "p53/MDM2 complex", "sequence (P04637 whole entry)": "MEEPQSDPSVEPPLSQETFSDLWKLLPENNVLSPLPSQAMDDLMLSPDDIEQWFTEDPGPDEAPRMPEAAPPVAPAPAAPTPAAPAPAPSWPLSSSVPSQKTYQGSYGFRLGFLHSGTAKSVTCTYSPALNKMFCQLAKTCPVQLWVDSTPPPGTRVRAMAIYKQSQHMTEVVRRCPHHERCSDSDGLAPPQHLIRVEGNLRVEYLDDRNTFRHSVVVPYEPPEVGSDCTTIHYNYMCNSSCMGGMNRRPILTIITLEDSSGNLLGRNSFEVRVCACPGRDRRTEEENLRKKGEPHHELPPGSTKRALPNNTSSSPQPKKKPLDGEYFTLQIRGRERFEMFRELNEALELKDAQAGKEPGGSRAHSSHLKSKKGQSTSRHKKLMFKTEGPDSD", "sequence (Q00987 whole entry, further chain)": "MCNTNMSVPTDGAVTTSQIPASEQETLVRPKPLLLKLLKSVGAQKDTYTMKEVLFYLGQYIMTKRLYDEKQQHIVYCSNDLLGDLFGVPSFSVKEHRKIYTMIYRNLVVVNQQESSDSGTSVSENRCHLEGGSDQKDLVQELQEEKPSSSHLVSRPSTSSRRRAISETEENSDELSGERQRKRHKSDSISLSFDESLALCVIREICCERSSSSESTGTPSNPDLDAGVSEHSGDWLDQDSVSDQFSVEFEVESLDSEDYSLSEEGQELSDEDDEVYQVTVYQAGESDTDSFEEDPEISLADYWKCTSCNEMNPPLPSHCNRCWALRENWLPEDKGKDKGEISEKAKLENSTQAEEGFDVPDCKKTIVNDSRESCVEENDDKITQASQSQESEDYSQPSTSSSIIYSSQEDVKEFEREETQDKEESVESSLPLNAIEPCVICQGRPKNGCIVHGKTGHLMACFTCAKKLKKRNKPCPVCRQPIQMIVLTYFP", "format": "cell-based, Human", "details": "HAdV5-infected A549 cells; 10-fold IC50; 24 h", "experimental": "A549 cells were seeded at a density of 1.5 × 10^5 cells per well in a 24-well plate at a high density and 3.75 × 10^4 cells per well at a low density. […] The culture medium was then aspirated and washed with 1X with cold PBS. Later, 200 μL RIPA Lysis Buffer (1% v/v NP-40, 20 mM Tris-HCL pH 7.4, 5 mM Sodium Pyrophosphate, 5 mM EDTA) with freshly added proteinase inhibitor cocktail (Thermo Fisher Scientific) was added to each well and swirled to distribute it evenly. Cells were then scraped and collected to incubate them for 30 min on ice and finally centrifuged at 13,000 × g for 5 min at 4°C. […] This assay was performed in triplicate."}, "A549 cells": {"system": "A549 cells", "experiment": "Cytotoxicity assay (AlamarBlue)", "format": "cell-based, Human", "details": "48 h", "experimental": "The cytotoxicity of the molecules was analyzed using the commercial kit AlamarBlue® (Invitrogen, Ref. DAL1025) according to the manufacturer’s instructions. Briefly, A549 cells were seeded at a density of 5 × 10^3 cells per well in 96-well plates, and decreasing serial dilutions of each molecule were diluted in 100 μL of DMEM starting at 200 μM. The cells were then incubated at 37°C for 48 h following the manufacturer’s protocol. The cytotoxic concentration 50% (CC50) value was obtained using the statistical software GraphPad Prism 6. The assay was performed in duplicate."}, "wild-type HAdV5 [4]": {"system": "wild-type HAdV5", "experiment": "Nuclear-associated HAdV genomes (qPCR after nuclear isolation)", "format": "cell-based, human adenovirus (HAdV5)", "details": "10-fold IC50; 45 min after synchronized infection; A549", "experimental": "Nuclear delivery of HAdV genomes was assessed using qPCR following nuclear isolation from infected cells. Briefly, 1 × 10^6 A549 cells in 6-well plates were infected either with wild-type HAdV5 at an MOI of 2,000 vp/cell in the presence of a 10-fold IC50 concentration of the compounds obtained in the plaque assay or the same volume of DMSO as the positive control. Forty-five minutes after infection, the A549 cells were trypsinized, collected, and washed twice with PBS. The cell pellet was resuspended in 500 μL of 1×hypotonic buffer (20 mM Tris-HCl pH 7.4, 10 mM NaCl, 3 mM MgCl2) and incubated for 15 min at 4°C. Then, 25 μL of NP-40 was added and the samples were vortexed. The homogenates were centrifuged for 10 min at 835 g at 4°C. Following the removal of the cytoplasmic fraction (supernatant), HAdV DNA was isolated from the nuclear (pellet) and cytoplasmic fractions using the E.Z.N.A.® Tissue DNA Kit (Omega Bio-tek, Norcross, GA)."}, "HAdV5": {"system": "HAdV5", "experiment": "HAdV-mediated endosome disruption (α-sarcin co-delivery, HPG incorporation)", "format": "cell-based, human adenovirus (HAdV5)", "experimental": "A549 cells (2 × 10^4 cells/well) were incubated in DMEM without cysteine or methionine supplemented with 10% dialyzed FBS [DMEM(−)] in black 96-well plates for 1 h prior to infection. Three-fold serial dilutions (0.45 ng–1,000 ng) of HAdV5, or AdV2ts1 were preincubated with cells in the presence of 10-fold IC50 concentration of the compounds obtained in the plaque assay or the same volume of DMSO for positive control for 1 h. The medium was then removed and replaced with 50 μL DMEM(−) containing 0.1 mg/ml α-sarcin (Santa Cruz Biotechnology, Dallas, Texas, USA) and drug mixtures. After 1 h at 37°C, the Click-iT L-homopropargylglycine (HPG) Alexa Fluor 488 Protein Synthesis Assay Kits (Invitrogen) was used to analyse protein synthesis according to the manufacturer’s instructions. The incorporation of the amino acid analogue of methionine HPG containing Alexa Fluor 488 azide was measured using a Typhoon 9410 imager (GE Healthcare Life Sciences) and calculated by subtracting the background level of the control well containing HPG and α-sarcin but not the virus (100% incorporation)."}}}
{"substance": "(2R,6S,6aR,12aS)-8,9-dimethoxy-2-(prop-1-en-2-yl)-1,2,6,6a,12,12a-hexahydrochromeno[3,4-b]furo[2,3-h]chromen-6-ol [Rotenolone]", "values": [{"measurement": "IC50", "setting": "HAdV5-GFP [1]", "value": 0.03, "unit": "µM"}, {"measurement": "inhibition of HAdV5-GFP transgene expression", "setting": "HAdV5-GFP [2]", "value": 100, "unit": "%"}, {"measurement": "Virus Yield Fold-reduction", "setting": "wild-type HAdV5 [3]", "value": "1.3E+04 ± 4582.5", "unit": "fold"}, {"measurement": "inhibition of HCMV replication", "setting": "HCMV", "value": 85.2, "unit": "%"}, {"measurement": "concentration of p53/MDM2 complexes, high vs low cell density", "setting": "p53/MDM2 complex", "value": "significant difference"}, {"measurement": "CC50", "setting": "A549 cells", "value": "17.1 ± 0.4", "unit": "µM"}, {"measurement": "accessibility of HAdV genomes to the nucleus", "setting": "wild-type HAdV5 [4]", "value": "did not block"}, {"measurement": "HPG incorporation", "setting": "HAdV5; compared with a control without α-sarcin, 10-fold IC50, independent of virus concentration", "value": "approximately 30%"}, {"measurement": "attenuation of HAdV-mediated endosomolysis", "setting": "HAdV5; α-sarcin assay", "value": "did not attenuate"}]}
